Results as given in patent US8975417B2, “Pyrazolopyrrolidine derivatives and their use in the treatment of disease” (Novartis AG, priority 2013, dated 2015).

Columns and labels:
His-Brd2(60-472) = His-Brd2(60-472) (Homo sapiens (Human), UniProt P25440); assay: TR-FRET in-vitro binding assay for BRD2; conditions: biochemical
How it was run: (§1)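 His-tagged BRD2(60-472), BRD3(20-477) or BRD4(44-477), 45 nM in dispensing solution, with 60 nM tetra-acetylated histone H4 peptide (AcK5/8/12/16) in dispensing solution; HEPES pH 7.5, 50 mM NaCl, 0.1% BSA, 30 °C, 35 min. Eu-anti-His6 antibody plus streptavidin-APC added for TR-FRET read-out; 8-point compound dilutions.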

His-Brd3(20-477) = His-Brd3(20-477) (Homo sapiens (Human), UniProt Q15059); assay: TR-FRET in-vitro binding assay for BRD3; conditions: biochemical
How it was run: as §1

His-Brd4(44-477) = His-Brd4(44-477) (Homo sapiens (Human), UniProt O60885); assay: TR-FRET in-vitro binding assay for BRD4; conditions: biochemical
How it was run: as §1

K-562 cells = assay: Cell growth inhibition assay (CellTiter-Glo), K-562; assay type: cell-based, human; conditions: Homo sapiens, K562, read-out: K-562 TGI
How it was run: (§2)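 Dose-response over 3-fold dilutions from 10 μM; 0.1% DMSO control. Endpoint: CellTiter-Glo ATP signal, background-subtracted and day 0-corrected.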

[1] = target: His-CREBBP (1081-1197) bromodomain (Homo sapiens (Human), UniProt Q92793); assay: AlphaScreen in-vitro binding assay for CREBBP; conditions: biochemical
How it was run: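 Ni-chelate acceptor and streptavidin donor beads (45 µg/mL each, in 50 mM HEPES pH 7.5, 150 mM NaCl, 0.02% BSA) were then added for 60 min at room temperature. IC50 came from 8-point non-linear regression.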

MV-4-11 cells = assay: Cell growth inhibition assay (CellTiter-Glo), MV-4-11; assay type: cell-based; conditions: Homo sapiens, MV4-11, read-out: MV-4-11 TGI
How it was run: as §2

THP-1 cells = assay: Cell growth inhibition assay (CellTiter-Glo), THP-1; assay type: cell-based; conditions: Homo sapiens, read-out: THP-1 TGI
How it was run: as §2

Chain of His-Brd2(60-472) (P25440 60-472): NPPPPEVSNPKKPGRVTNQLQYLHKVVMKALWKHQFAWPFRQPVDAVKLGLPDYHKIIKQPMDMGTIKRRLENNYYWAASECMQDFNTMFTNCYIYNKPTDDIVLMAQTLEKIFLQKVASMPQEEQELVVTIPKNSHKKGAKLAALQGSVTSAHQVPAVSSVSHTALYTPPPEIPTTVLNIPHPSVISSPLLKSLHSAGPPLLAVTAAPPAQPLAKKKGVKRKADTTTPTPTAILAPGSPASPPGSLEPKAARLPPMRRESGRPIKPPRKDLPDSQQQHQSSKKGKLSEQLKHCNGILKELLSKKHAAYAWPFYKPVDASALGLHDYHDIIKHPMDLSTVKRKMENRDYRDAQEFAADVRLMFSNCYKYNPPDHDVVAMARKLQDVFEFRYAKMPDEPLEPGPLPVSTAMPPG
Chain of His-CREBBP (1081-1197) bromodomain (Q92793 1081-1197): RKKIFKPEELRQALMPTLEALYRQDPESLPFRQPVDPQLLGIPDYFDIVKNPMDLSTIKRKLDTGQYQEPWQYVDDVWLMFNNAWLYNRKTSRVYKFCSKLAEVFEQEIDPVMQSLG
Chain of His-Brd3(20-477) (Q15059 20-477): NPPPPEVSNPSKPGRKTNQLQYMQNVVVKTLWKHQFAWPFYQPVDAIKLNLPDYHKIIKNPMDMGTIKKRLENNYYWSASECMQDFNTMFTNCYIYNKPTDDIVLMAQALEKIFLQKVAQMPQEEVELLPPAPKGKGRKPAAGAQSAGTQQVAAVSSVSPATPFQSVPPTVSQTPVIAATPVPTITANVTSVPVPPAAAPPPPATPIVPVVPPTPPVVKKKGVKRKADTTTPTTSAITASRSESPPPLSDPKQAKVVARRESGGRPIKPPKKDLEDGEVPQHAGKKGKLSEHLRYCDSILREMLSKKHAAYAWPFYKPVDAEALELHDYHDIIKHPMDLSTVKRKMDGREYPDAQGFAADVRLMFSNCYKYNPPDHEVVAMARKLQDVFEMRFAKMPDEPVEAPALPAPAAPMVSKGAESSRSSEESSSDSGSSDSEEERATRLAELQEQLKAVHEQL

SMILES | IC50 (His-Brd2(60-472)) [nM] | IC50 (His-Brd3(20-477)) [nM] | IC50 (His-Brd4(44-477)) [nM] | IC50 [1] [nM] | IC (total growth inhibition) (K-562 cells) [µM] | IC (total growth inhibition) (MV-4-11 cells) [µM] | IC (total growth inhibition) (THP-1 cells) [µM]
COc1ncccc1-n1nc(C)c2c1C(=O)N(c1cc(C)c(=O)n(C)c1)C2c1ccc(Cl)cc1 (centres unmarked) [Example 71, 4-(4-chlorophenyl)-5-(1,5-dimethyl-6-oxo-1,6-dihydropyridin-3-yl)-1-(2-methoxypyridin-3-yl)-3-methyl-4,5-dihydropyrrolo[3,4-c]pyrazol-6(1H)-one] | 41 | 58 | 53 | 5900 | > 10 | 0.103 | 0.178
COCc1nn(C2CC2)c2c1[C@@H](c1ccc(Cl)cc1)N(c1cc(C)c(=O)n(C)c1)C2=O [Example 162, (R)-4-(4-chlorophenyl)-1-cyclopropyl-5-(1,5-dimethyl-6-oxo-1,6-dihydropyridin-3-yl)-3-(methoxymethyl)-4,5-dihydropyrrolo[3,4-c]pyrazol-6(1H)-one] | 39 | 42 | 41 | 3700 | > 10 | 0.0903 | 0.173
Cc1n[nH]c2c1[C@@H](c1ccc(Cl)cc1)N(c1cc(C)c3nnc(C)n3c1)C2=O [Example 165, (R)-4-(4-chlorophenyl)-5-(3,8-dimethyl-[1,2,4]triazolo[4,3-a]pyridin-6-yl)-3-methyl-4,5-dihydropyrrolo[3,4-c]pyrazol-6(1H)-one] | 17 | 23 | 15 | 4600 | > 10 | 0.0396 | 0.0921
Cc1cc(N2C(=O)c3c(c(CO)nn3C3CC3)[C@H]2c2ccc(Cl)cc2)cn2c(C)nnc12 [Example 166, (R)-4-(4-chlorophenol)-1-cyclopropyl-5-(3,8-dimethyl-[1,2,4]triazolo[4,3-a]pyridin-6-yl)-3-(hydroxymethyl)-4,5-dihydropyrrolo[3,4-c]pyrazol-6(1H)-one] | 16 | 13 | < 11 | 14000 | > 10 | 0.0262 | 0.0539
Cc1nn(C(C)C)c2c1C(c1ccc(Cl)cc1F)N(c1cc(C)c3nnc(C)n3c1)C2=O (centres unmarked) [Example 168, 4-(4-chloro-2-fluorophenyl)-5-(3,8-dimethyl-[1,2,4]triazolo[4,3-a]pyridin-6-yl)-1-isopropyl-3-methyl-4,5-dihydropyrrolo[3,4-c]pyrazol-6(1H)-one] | 71 | 30 | 59 | 11000 | > 10 | 0.0403 | 0.0949
Cc1n[nH]c2c1C(c1ccc(F)cc1F)N(c1cc(C)c3nnc(C)n3c1)C2=O (centres unmarked) [Example 172, 4-(2,4-difluorophenyl)-5-(3,8-dimethyl-[1,2,4]triazolo[4,3-a]pyridin-6-yl)-3-methyl-4,5-dihydropyrrolo[3,4-c]pyrazol-6(2H)-one] | 220 | 110 | 97 | > 37000 | > 10 | 0.323 | 0.782
COc1ncccc1-n1nc(C)c2c1C(=O)N(c1cc(C)c3nnc(C)n3c1)C2c1ccc(F)cc1F (centres unmarked) [Example 173, 4-(2,4-difluorophenyl)-5-(3,8-dimethyl-[1,2,4]triazolo[4,3-a]pyridin-6-yl)-1-(2-methoxypyridin-3-yl)-3-methyl-4,5-dihydropyrrolo[3,4-c]pyrazol-6(1H)-one] | 79 | 87 | 58 | > 37000 | > 10 | 0.139 | 0.282
Cc1nn(C(C)C)c2c1C(c1ccc(F)cc1F)N(c1cc(C)c3nnc(C)n3c1)C2=O (centres unmarked) [Example 174, 4-(2,4-difluorophenyl)-5-(3,8-dimethyl-[1,2,4]triazolo[4,3-a]pyridin-6-yl)-1-isopropyl-3-methyl-4,5-dihydropyrrolo[3,4-c]pyrazol-6(1H)-one] | 110 | 72 | 52 | 12000 | > 10 | 0.0588 | 0.105
Cc1cc(N2C(=O)c3nn(C(C)C)c(C)c3C2c2ccc(F)cc2F)cn2c(C)nnc12 (centres unmarked) [Example 175, 4-(2,4-difluorophenyl)-5-(3,8-dimethyl-[1,2,4]triazolo[4,3-a]pyridin-6-yl)-2-isopropyl-3-methyl-4,5-dihydropyrrolo[3,4-c]pyrazol-6(2H)-one] | 72 | 37 | 34 | 13000 | > 10 | 0.0867 | 0.131
Cc1nn(C2CC2)c2c1C(c1ccc(F)cc1F)N(c1cc(C)c3nnc(C)n3c1)C2=O (centres unmarked) [Example 176, 1-cyclopropyl-4-(2,4-difluorophenyl)-5-(3,8-dimethyl-[1,2,4]triazolo[4,3-a]pyridin-6-yl)-3-methyl-4,5-dihydropyrrolo[3,4-c]pyrazol-6(1H)-one] | 120 | 90 | 100 | > 37000 | > 10 | 0.0631 | 0.106
CCn1nc(C)c2c1C(=O)N(c1cc(C)c3nnc(C)n3c1)C2c1ccc(F)cc1F (centres unmarked) [Example 181, 4-(2,4-difluorophenyl)-5-(3,8-dimethyl-[1,2,4]triazolo[4,3-a]pyridin-6-yl)-1-ethyl-3-methyl-4,5-dihydropyrrolo[3,4-c]pyrazol-6(1H)-one] | 62 | 40 | 34 | > 37000 | > 10 | 0.0886 | 0.117

Continued, in another order:

IC50 (His-Brd2(60-472)) [nM] | IC50 (His-Brd3(20-477)) [nM] | IC50 (His-Brd4(44-477)) [nM] | IC50 [1] [nM] | SMILES | IC (total growth inhibition) (K-562 cells) [µM] | IC (total growth inhibition) (MV-4-11 cells) [µM] | IC (total growth inhibition) (THP-1 cells) [µM]
26 | 28 | 27 | 4100 | CCc1nn(C2CC2)c2c1C(c1ccc(Cl)cc1)N(c1cc(C)c(=O)n(C)c1)C2=O (centres unmarked) [Example 69] | > 10 | 0.0466 | 0.0983
16 | 13 | 15 | 630 | CCn1nc(C)c2c1C(=O)N(c1cc(C)c(=O)n(C)c1)C2c1ccc(Cl)cc1F (centres unmarked) [Example 170, 4-(4-chloro-2-fluorophenyl)-5-(1,5-dimethyl-6-oxo-1,6-dihydropyridin-3-yl)-1-ethyl-3-methyl-4,5-dihydropyrrolo[3,4-c]pyrazol-6(1H)-one] | > 10 | 0.0159 | 0.0331
140 | 93 | 140 | 1500 | CCn1nc2c(c1C)C(c1ccc(Cl)cc1F)N(c1cc(C)c(=O)n(C)c1)C2=O (centres unmarked) [Example 171, 4-(4-chloro-2-fluorophenyl)-5-(1,5-dimethyl-6-oxo-1,6-dihydropyridin-3-yl)-2-ethyl-3-methyl-4,5-dihydropyrrolo[3,4-c]pyrazol-6(2H)-one] | > 10 | 0.174 | 0.297
68 | 62 | 66 | 32000 | Cc1nn(C2CC2)c2c1C(c1ccc(Cl)cc1F)N(c1cc(C)c3nnc(C)n3c1)C2=O (centres unmarked) [Example 178, 4-(4-chloro-2-fluorophenyl)-1-cyclopropyl-5-(3,8-dimethyl-[1,2,4]triazolo[4,3-a]pyridin-6-yl)-3-methyl-4,5-dihydropyrrolo[3,4-c]pyrazol-6(1H)-one] | > 10 | 0.0491 | 0.107
92 | 90 | 95 | 3900 | Cc1nn(C2CC2)c2c1C(c1ccc(Cl)cc1F)N(c1cc(C)c(=O)n(C)c1)C2=O (centres unmarked) [Example 179, 4-(4-chloro-2-fluorophenyl)-1-cyclopropyl-5-(1,5-dimethyl-6-oxo-1,6-dihydropyridin-3-yl)-3-methyl-4,5-dihydropyrrolo[3,4-c]pyrazol-6(1H)-one] | > 10 | 0.12 | 0.272
89 | 71 | 83 | 2400 | Cc1nn(C(C)C)c2c1C(c1ccc(Cl)cc1F)N(c1cc(C)c(=O)n(C)c1)C2=O (centres unmarked) [Example 180, 4-(4-chloro-2-fluorophenyl)-5-(1,5-dimethyl-6-oxo-1,6-dihydropyridin-3-yl)-1-isopropyl-3-methyl-4,5-dihydropyrrolo[3,4-c]pyrazol-6(1H)-one] | > 10 | 0.108 | 0.186
